In patent EP4714948A1, “COMPOUND USED FOR EGFR PROTEIN DEGRADATION, AND USE THEREOF” (TYK Medicines, Inc., priority 2023, dated 2024):

Experiments:
[1] = molecular target: EGFR in BAF3-LTC (Baf3-L858R-T780M-C797S) (Homo sapiens, UniProt P00533, C797S/L858R/T790M); test: EGFR PROTAC HTRF experiment (total EGFR degradation); format: cell-based; settings: BAF3-LTC cells, 16 hours incubation
[2] = molecular target: EGFR in BAF3-DTC (Baf3-19del-T780M-C797S) (Homo sapiens, UniProt P00533, C797S/DEL746-750/T790M); test: as above; format: cell-based; settings: BAF3-DTC cells, 16 hours incubation
Sequence of EGFR in BAF3-DTC (Baf3-19del-T780M-C797S) (P00533 with tags, fused parts or gaps DEL746-750/T790M/C797S): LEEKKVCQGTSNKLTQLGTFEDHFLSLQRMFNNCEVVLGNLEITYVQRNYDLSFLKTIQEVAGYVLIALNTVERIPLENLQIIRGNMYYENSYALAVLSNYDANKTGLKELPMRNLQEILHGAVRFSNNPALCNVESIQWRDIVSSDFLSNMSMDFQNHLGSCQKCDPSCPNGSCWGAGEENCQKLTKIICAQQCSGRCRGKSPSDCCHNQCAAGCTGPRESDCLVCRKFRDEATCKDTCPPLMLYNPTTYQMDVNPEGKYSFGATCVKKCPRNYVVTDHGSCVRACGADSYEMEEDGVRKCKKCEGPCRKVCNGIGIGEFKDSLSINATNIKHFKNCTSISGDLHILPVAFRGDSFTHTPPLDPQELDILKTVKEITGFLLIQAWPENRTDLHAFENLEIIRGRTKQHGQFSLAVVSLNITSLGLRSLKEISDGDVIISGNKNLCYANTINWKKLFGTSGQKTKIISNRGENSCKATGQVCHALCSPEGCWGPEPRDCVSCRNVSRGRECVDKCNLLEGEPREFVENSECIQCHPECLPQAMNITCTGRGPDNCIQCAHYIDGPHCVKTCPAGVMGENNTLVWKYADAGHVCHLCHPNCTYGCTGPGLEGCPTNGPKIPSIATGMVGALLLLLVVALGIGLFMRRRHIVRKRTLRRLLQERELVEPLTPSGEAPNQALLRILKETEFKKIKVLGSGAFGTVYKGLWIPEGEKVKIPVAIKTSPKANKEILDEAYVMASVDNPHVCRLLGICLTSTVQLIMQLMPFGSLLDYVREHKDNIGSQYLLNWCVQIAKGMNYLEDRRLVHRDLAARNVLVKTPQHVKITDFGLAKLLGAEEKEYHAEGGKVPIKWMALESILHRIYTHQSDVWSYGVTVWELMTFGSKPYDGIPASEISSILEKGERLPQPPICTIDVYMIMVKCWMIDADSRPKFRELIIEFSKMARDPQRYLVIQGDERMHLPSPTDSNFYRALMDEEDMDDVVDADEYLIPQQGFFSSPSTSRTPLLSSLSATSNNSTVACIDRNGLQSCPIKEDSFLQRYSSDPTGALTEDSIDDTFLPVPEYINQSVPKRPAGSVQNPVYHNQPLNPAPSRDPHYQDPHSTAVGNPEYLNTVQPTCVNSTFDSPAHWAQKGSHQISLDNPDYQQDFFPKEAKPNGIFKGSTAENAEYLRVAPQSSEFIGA

[3] = system: PC-9; test: Cell antiproliferative assay (CTG, 72 h); format: cell-based; settings: Homo sapiens, PC-9 (EGFR exon 19 deletion)
Experimental: (§1) H1975 has EGFR T790M/L858R dual mutation, PC-9 has EGFR exon 19 deletion mutation, and HCC827 has exon 19 deletion mutation. CellCounting Lite 2.0, Trypsin EDTA, 37 °C CO2 incubator, cell counter, EnVision Serial No.1050454.
(§2) • (A) Trypsin EDTA was used to digest log-phase cells, medium was added to terminate the digestion reaction, and a cell suspension was prepared by blowing and mixing with a pipette. • (B) Cell concentration was determined using Vi-cell, and a suspension of 15,000-25,000 cells per milliliter was made depending on the purpose of the experiment and the characteristics of the cells. • (C) After the cell suspension was ready, it was gently mixed and each well was added with 100µL so that the cell density to be tested was 1,500- 2,500 per well.
(§3) • A) About 2 mg of compound was weighed, and the volume of DMSO required was calculated according to the formula: compound mass (mg)*compound purity (%)/compound molecular weight*1000. • (B) The inoculated cell culture plates were incubated in an incubator. About 24 hours later, compounds were added at gradient concentrations. • (C) 10mM of compound reservoir solution was diluted to […] with medium, and […] of the compound solution was added sequentially to the second column of the deep-well plate, and […] of medium containing 0.5% DMSO was added to the third to eleventh columns. • D) Gradient dilution: 125 µl of solution was pipetted from the second column and added to the third column, after mixing; another 125 µl of solution was pipetted from the third column and added to the fourth column, and the operation was repeated until the tenth column. • (E) 25 µl of compound was pipetted from the deep-well plate into a 96-well culture plate using a multichannel pipette, and each compound was run in triplicate on the 96-well plate. A 1:4 concentration gradient was established on the 96-well plate, with a final highest concentration of 10,000 nM.
(§4) • (A) 96-well plates were incubated in an incubator for 72 h. The effect of the compounds was observed under an inverted microscope. • (B) 25 µl of CTG solution was added to each well. The plate was incubated on a shaker for 10 minutes and the OD value of each well was read.
(§5) The survival rate ( % Cell Viability) was calculated using the following formula: %Cell Viability = 100% × (Lum_Sample−Lum_LC)/(Lum_HC−Lum_LC) [formula] • Lum_HC: Cell reading of 0.1% DMSO control group • Lum_Sample: Cell readings of compound addition group • Lum_LC: Reading of blank medium • IC50 values were obtained by curve fitting using GraphPad Prism 8 software.

[4] = system: HCC827; test: Cell antiproliferative assay (CTG, 72 h); format: cell-based; settings: Homo sapiens, HCC827 (exon 19 deletion)
Experimental: as §1, §2, §3, §4, §5

[5] = system: H1975; test: Cell antiproliferative assay (CTG, 72 h); format: cell-based; settings: Homo sapiens, NCI-H1975, H1975 (EGFR T790M/L858R)
Experimental: as §1, §2, §3, §4, §5

[6] = Pharmacokinetic test on male SD rats; format: in vivo; settings: gavage (p.o.), 10 mg/kg, plasma; for AUC(0-inf) / AUC(0-t) / Cmax / MRT last / Tmax: rat, po
Experimental: Healthy adult SD rats, male, a total of 3, 6-8 weeks old; Weighing 200-300 grams.
EDTA-Na2 anticoagulant: 11.2 g of EDTA-Na2 was weighted and placed into a reagent bottle. 100 mL of physiological saline was added and the mixture was shaken until completely dissolved. After preparation, the solution was aliquoted into 1.5 mL centrifuge tubes, each containing approximately 20 uL, for use in whole blood sample collection.
Approximately 10 mg of the test sample was accurately weighed. DMSO accounting for 10% of the total volume was added to dissolve the sample. Subsequently, 0.5% MC solvent accounting for 90% of the total volume was slowly added while stirring. The mixture was sonicated and vortexed evenly, and a visually homogeneous preparation solution was obtained, with a concentration of 1 mg/mL. This solution should be freshly prepared immediately before use.
0.2 mL of the sample was pipetted into a 1.5 mL centrifuge tube and stored at -80°C for concentration analysis of the dosing solution.
Animals were kept in rat cages and fasted for no less than 10 hours on the day before the experiment, but were allowed to drink water. The animals were individually weighed and marked on their tails. Prior to dosing, blank blood samples were collected from each animal via the tail vein.
• Administration route: gavage (p.o.) • Dosage concentration: 1mg/ml • Dosage: 10 mg/kg • Dosage volume: 10 mL/kg
Operation process: The rat was grasped with a left hand protected by a bite-resistant glove and held in an upright position. The gavage needle was inserted through the mouth and advanced towards the pharynx. The needle was advanced gently, ensuring no significant resistance was felt. The drug was then injected into the stomach.
At 0.5 h, 1 h, 2 h, 4 h, 6 h, 8 h, 12 h, and 24 h post-dosing, 0.1-0.2 mL of whole blood was collected from each test animal into EDTA-Na2 anticoagulant tubes. The tubes were mixed by inverting 3-4 times. The samples were centrifuged at 2000 × g and 4 °C for 5 minutes. The upper plasma layer was to separated, promptly transferred to -80 °C for storage until analysis. The blood was collected via tail vein.
A quantitative detection method for the test compound was established using a Shimadzu liquid chromatography system and a Triple Quad™ 6500+ AB mass spectrometry (MS) system. This method was used to analyze the concentration of the parent drug in plasma. The variation of the analysis results was controlled using quality control (QC) samples, and the accuracy of the QC samples was required to be within the range of 80%-120%.
The main pharmacokinetic parameters were calculated using the non-compartmental model (NCA) with the WinNonlin Phoenix software. These parameters include: area under the concentration-time curve (AUC(0-t) and AUC(0-∞)), elimination half-life (T1/2), maximum plasma concentration (Cmax), and time to reach maximum plasma concentration (Tmax), etc.

Sequence of EGFR in BAF3-LTC (Baf3-L858R-T780M-C797S) (P00533 25-1210 T790M/C797S/L858R): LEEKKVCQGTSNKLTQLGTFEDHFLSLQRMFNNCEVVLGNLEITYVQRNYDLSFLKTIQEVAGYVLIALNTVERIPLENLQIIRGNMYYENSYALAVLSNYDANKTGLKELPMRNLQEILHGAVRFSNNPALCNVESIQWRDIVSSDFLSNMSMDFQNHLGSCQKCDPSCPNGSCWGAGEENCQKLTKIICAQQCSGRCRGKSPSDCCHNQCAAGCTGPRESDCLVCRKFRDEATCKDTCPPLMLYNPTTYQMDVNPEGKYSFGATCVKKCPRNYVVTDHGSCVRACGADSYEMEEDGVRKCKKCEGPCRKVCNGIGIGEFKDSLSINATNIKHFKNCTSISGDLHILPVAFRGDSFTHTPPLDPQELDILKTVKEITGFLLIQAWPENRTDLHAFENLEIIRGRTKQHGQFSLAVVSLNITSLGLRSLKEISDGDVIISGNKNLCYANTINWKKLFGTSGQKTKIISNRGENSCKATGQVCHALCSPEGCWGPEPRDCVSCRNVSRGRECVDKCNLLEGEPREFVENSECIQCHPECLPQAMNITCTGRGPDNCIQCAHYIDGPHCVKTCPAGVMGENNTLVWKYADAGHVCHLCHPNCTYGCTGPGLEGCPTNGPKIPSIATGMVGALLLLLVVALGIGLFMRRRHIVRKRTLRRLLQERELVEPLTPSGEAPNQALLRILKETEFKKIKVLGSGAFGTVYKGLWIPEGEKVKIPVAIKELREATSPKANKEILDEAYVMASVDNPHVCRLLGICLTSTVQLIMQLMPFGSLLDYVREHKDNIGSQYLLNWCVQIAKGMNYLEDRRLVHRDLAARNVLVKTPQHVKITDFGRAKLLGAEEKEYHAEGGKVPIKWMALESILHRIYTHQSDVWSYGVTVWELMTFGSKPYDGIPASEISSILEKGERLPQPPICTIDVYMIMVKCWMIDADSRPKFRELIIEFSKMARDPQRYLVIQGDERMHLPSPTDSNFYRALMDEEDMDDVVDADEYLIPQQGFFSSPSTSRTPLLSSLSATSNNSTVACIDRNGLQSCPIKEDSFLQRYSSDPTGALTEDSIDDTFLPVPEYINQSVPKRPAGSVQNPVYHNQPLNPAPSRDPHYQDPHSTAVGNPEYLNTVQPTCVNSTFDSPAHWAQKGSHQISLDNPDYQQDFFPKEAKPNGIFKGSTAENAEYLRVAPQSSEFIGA

| SMILES | DC50 [1] [nM] | Dmax [1] [%] | DC50 [2] [nM] | Dmax [2] [%] | IC50 [3] [nM] | IC50 [4] [nM] | IC50 [5] [nM] | HL_ [6] [h] | AUC(0-inf) [6] [ng·h/mL] | AUC(0-t) [6] [ng·h/mL] | Cmax [6] [ng/mL] | MRT last [6] [h] | Tmax [6] [h] |
| --- | --- | --- | --- | --- | --- | --- | --- | --- | --- | --- | --- | --- | --- |
| C=Cc1cc(Nc2ncc(Cl)c(Nc3ccccc3C(=O)NC)n2)c(OC)cc1N1CCN(C(=O)CN2CCC(c3ccc(NC4CCC(=O)NC4=O)cc3)CC2)CC1 (stereo not shown) [Compound T-003] | 10 to 100 | 70 to 100 | 10 to 100 | 70 to 100 | 100 to 1000 | 10 to 100 | 10 to 100 | – | – | – | – | – | – |
| COc1cc(N2CCN(C(=O)CN3CCC(c4ccc(NC5CCC(=O)NC5=O)cc4)CC3)CC2)ccc1Nc1ncc(Cl)c(Nc2ccccc2-n2ccnn2)n1 (stereo not shown) [Compound T-007] | 100 to 1000 | 70 to 100 | – | – | 100 to 1000 | 100 to 1000 | 10 to 100 | – | – | – | – | – | – |
| COc1cc(N2CCN(C(=O)CN3CCC(c4ccc(NC5CCC(=O)NC5=O)cc4)CC3)CC2)ccc1Nc1ncc(Cl)c(Nc2ccccc2-c2ncc[nH]2)n1 (stereo not shown) [Compound T-011] | 100 to 1000 | 50 to 70 | – | – | 100 to 1000 | 100 to 1000 | 10 to 100 | – | – | – | – | – | – |
| CNC(=O)c1ccccc1Nc1nc(Nc2cc(C)c(N3CCN(CCN4CCC(c5ccc(NC6CCC(=O)NC6=O)cc5)CC4)CC3)cc2OC)ncc1Cl (stereo not shown) [Compound T-021] | 100 to 1000 | 70 to 100 | 100 to 1000 | 70 to 100 | 100 to 1000 | 10 to 100 | < 10 | – | – | – | – | – | – |
| CCc1cc(Nc2ncc(Cl)c(Nc3ccccc3C(=O)NC)n2)c(OC)cc1N1CCN(CCN2CCC(c3ccc(NC4CCC(=O)NC4=O)cc3)CC2)CC1 (stereo not shown) [Compound T-023] | 10 to 100 | 70 to 100 | 10 to 100 | 70 to 100 | 100 to 1000 | 10 to 100 | < 10 | 9.28 | 76300 | 61600 | 4060 | 10 | 6 |
| CCc1cc(Nc2ncc(Cl)c(Nc3ccccc3C(=O)NC)n2)c(OC)cc1N1CCN(C(=O)CN2CCN(c3ccc(NC4CCC(=O)NC4=O)cc3F)CC2)CC1 (stereo not shown) [Compound T-029] | 100 to 1000 | 70 to 100 | 10 to 100 | 50 to 70 | 100 to 1000 | 100 to 1000 | 10 to 100 | 2.51 | 8210 | 7900 | 1010 | 5.65 | 4.67 |
| CCc1cc(Nc2ncc(Cl)c(Nc3ccccc3C(=O)NC)n2)c(OC)cc1N1CCN(C(=O)CN2CCC(c3ccc4c(N5CCC(=O)NC5=O)nn(C)c4c3)CC2)CC1 [Compound T-043] | – | – | – | – | 100 to 1000 | 10 to 100 | < 10 | – | – | – | – | – | – |
| CCc1cc(Nc2ncc(Cl)c(Nc3ccccc3C(=O)NC)n2)c(OC)cc1N1CCN(C(=O)CN2CCN(c3ccc4c(N5CCC(=O)NC5=O)nn(C)c4c3)CC2)CC1 [Compound T-045] | – | – | – | – | 100 to 1000 | 100 to 1000 | 100 to 1000 | – | – | – | – | – | – |
| CCc1cc(Nc2ncc(Cl)c(Nc3ccccc3C(=O)NC)n2)c(OC)cc1N1CC2CCC(C1)N2C(=O)CN1CCC(c2ccc(NC3CCC(=O)NC3=O)cc2)CC1 (stereo not shown) [Compound T-109] | 10 to 100 | 50 to 70 | 10 to 100 | 50 to 70 | 10 to 100 | 10 to 100 | 10 to 100 | – | – | – | – | – | – |

The next lines start with the values.

| DC50 [1] [nM] | Dmax [1] [%] | DC50 [2] [nM] | Dmax [2] [%] | IC50 [3] [nM] | IC50 [4] [nM] | IC50 [5] [nM] | HL_ [6] [h] | AUC(0-inf) [6] [ng·h/mL] | AUC(0-t) [6] [ng·h/mL] | Cmax [6] [ng/mL] | MRT last [6] [h] | Tmax [6] [h] | SMILES |
| --- | --- | --- | --- | --- | --- | --- | --- | --- | --- | --- | --- | --- | --- |
| – | – | – | – | 100 to 1000 | 100 to 1000 | 10 to 100 | – | – | – | – | – | – | CNC(=O)c1ccccc1Nc1nc(Nc2ccc(N3CCN(C(=O)CN4CCC(c5ccc6c(N7CCC(=O)NC7=O)nn(C)c6c5)C(F)(F)C4)CC3)cc2OC)ncc1Cl (stereo not shown) [Compound T-047] |
| – | – | – | – | 100 to 1000 | 10 to 100 | < 10 | – | – | – | – | – | – | CNC(=O)c1ccccc1Nc1nc(Nc2cc(C)c(N3CCN(C(=O)CN4CCC(c5ccc6c(N7CCC(=O)NC7=O)nn(C)c6c5)C(F)(F)C4)CC3)cc2OC)ncc1Cl (stereo not shown) [Compound T-049] |
| – | – | – | – | 100 to 1000 | 100 to 1000 | 10 to 100 | 4.02 | 7990 | 7720 | 673 | 4.67 | 4.67 | CCc1cc(Nc2ncc(Cl)c(Nc3ccccc3C(=O)NC)n2)c(OC)cc1N1CCN(C(=O)CN2CCC(c3ccc(NC4CCC(=O)NC4=O)cc3)CC2)[C@H](C)C1 (stereo partly shown) [Compound T-079] |
| 10 to 100 | 70 to 100 | 10 to 100 | 70 to 100 | 10 to 100 | 10 to 100 | < 10 | – | – | – | – | – | – | CCc1cc(Nc2ncc(Cl)c(Nc3ccccc3C(=O)NC)n2)c(OC)cc1N1CC2(CN(C(=O)CN3CCC(c4ccc(NC5CCC(=O)NC5=O)cc4)CC3)C2)C1 (stereo not shown) [Compound T-080] |
| – | – | – | – | 100 to 1000 | 100 to 1000 | 100 to 1000 | – | – | – | – | – | – | CNC(=O)c1ccccc1Nc1nc(Nc2cc(C)c(N3CCN(C(=O)CC4(O)CCN(c5ccc6c(N7CCC(=O)NC7=O)nn(C)c6c5)CC4)CC3)cc2OC)ncc1Cl [Compound T-086] |
